Results as given in patent US9944589B2, “Cycloproplyamine derivatives useful as inhibitors of histone demethylases KDM1A” (Istituto Europeo de Oncologia S.r.L., priority 2012, dated 2018).
Where a name gives a salt, the structure may show the parent alone.

How the values were obtained:
[1] = tested on: Acute promyelocytic leukemia NB4 cells; assay: Cell growth (CellTiter-Fluor cell viability assay); type: cell-based; conditions: Homo sapiens, NB-4, 48 h, range classes, read-out: IC50 [μM], cell growth inhibitory assay
Method in brief: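 Exponentially growing NB4 cells exposed to a range of inhibitor concentrations for 48 h. Viability then read as live-cell protease fluorescence (ex 360/em 535 nm) after ≥90 min reagent incubation at 37 °C; IC50 calculated from the data.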

Human recombinant MAO B = biological target: T1, Human recombinant MAO B (Homo sapiens, UniProt P27338); conditions: ratio of IC50 against MAO-B over IC50 for LSD1
T1 sequence (P27338 1-520): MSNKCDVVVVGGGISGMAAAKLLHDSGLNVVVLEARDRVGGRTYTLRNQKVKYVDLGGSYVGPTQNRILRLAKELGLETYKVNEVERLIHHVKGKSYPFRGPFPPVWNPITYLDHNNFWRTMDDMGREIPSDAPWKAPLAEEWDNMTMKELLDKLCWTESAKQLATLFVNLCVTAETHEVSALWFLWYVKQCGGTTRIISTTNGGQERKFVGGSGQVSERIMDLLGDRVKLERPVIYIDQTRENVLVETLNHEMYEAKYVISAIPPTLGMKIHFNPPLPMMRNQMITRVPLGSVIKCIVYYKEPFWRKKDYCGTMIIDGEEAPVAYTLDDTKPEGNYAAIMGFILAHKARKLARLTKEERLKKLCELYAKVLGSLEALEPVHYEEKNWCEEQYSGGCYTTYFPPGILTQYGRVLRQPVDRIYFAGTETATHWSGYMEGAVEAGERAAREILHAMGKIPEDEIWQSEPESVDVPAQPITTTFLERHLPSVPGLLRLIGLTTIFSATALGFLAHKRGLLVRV
Method: The MAO-Glo Assay from Promega (cat. V1402, Promega, Madison, Wis.) was used to measure the effect of inhibitors on MAO-A and MAO-B activity.
After 30 minutes of incubation the reaction was stopped with the Promega detection reagent. The experiments were carried out in duplicate. IC50 was calculated using GraphPad Prism version 4.0 (GraphPad Software, San Diego, Calif.).

[2] = tested on: mouse model of leukemia resembling the human acute promyelocytic leukemia; assay: In vivo activity, mouse leukemia model, splenomegaly as read out of blast infiltration; conditions: orally, 30 mg/kg, 4 days, leukemic mice
Method: The in vivo activity was conducted on a mouse model as characterized by Minucci et al. (Minucci S. et al. Blood 2002, 100, 2989-2995) The model is characterized by the development of leukemia, resembling the human acute promyelocytic leukemia, which is associated to a blast infiltration of several organs as bone marrow, liver and particularly of the spleen. In the conducted experiment, splenomegaly was studied as read out of blast infiltration and development of leukemia.
For the in vivo analysis, one million of leukemic cells (obtained from 129SvEv mice, Minucci S. et al. Blood 2002, 100, 2989-2995, obtained from Taconic, One Hudson City Centre Hudson, N.Y. (USA)) were injected intravenously into non-irradiated syngenic recipients. Treatment started once blast cells are detected in the recipients' peripheral blood (9 days after injection). The compounds were intravenously or orally administered at doses of 10 and 30 mg/kg for 4 days. […] after blast injection the mice were sacrificed and the spleens recovered. The weights of the spleen of the mice of the vehicle groups as well as of the treated groups were registered and used as evidence of effect on blast infiltration. […]
Compound A-36 administered orally at 30 mg/kg determined a reduction of the spleen weight of around 50% compared to mice treated with the vehicle (40% PEG-400, 60% aqueous solution containing 5% glucose) alone.

[3] = biological target: T2, human recombinant KDM1A (LSD1)/CoRest (Homo sapiens, UniProt O60341); assay: Assay of enzyme inhibition of KDM1A (LSD1), Amplex UltraRed/peroxidase coupled; type: biochemical; conditions: 15 min preincubation, 4.5 μM mono-methylated H3-K4 peptide, range classes, read-out: IC50 [μM], KDM1A inhibition assay
T2 construct: made in house; host or cells: E. coli
Method in brief: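 KDM1A/CoRest complex with inhibitor (e.g. 0–100 μM) and Amplex UltraRed/peroxidase preincubated 15 min at RT. Substrate: mono-methylated H3K4 21-mer peptide in 50 mM Tris pH 8, 0.05 mg/ml BSA, aerobic. IC50 from duplicates run twice, background-corrected.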

Row | Compound | IC50 [1] [µM] | IC50 (MAO-B)/IC50 (LSD1) (Human recombinant MAO B) | IC50 [3] [µM] | reduction of the spleen weight compared to mice treated with the vehicle [2]
1 | CC[C@]1(N)C[C@@H]1c1ccc(NC(=O)c2ccccc2)cc1.Cl (relative stereo) [Example A-47, N-[4-[trans-2-amino-2-ethyl-cyclopropyl]phenyl]benzamide hydrochloride] |  | >100 | < 0.1 | 
2 | CC[C@@]1(N)C[C@H]1c1ccc(NC(=O)c2ccc(-c3ccoc3)cc2)cc1 (relative stereo) [Example A-78, N-[4-[trans-2-amino-2-ethyl-cyclopropyl]phenyl]-4-(3-furyl) benzamide hydrochloride] | ≤ 10 | 60 | < 0.1 | 
3 | CC[C@@]1(N)C[C@H]1c1ccc(NC(=O)c2cccc(N3CCOC3=O)c2)cc1 (relative stereo) [Example A-98, N-[4-[trans-2-amino-2-ethyl-cyclopropyl]phenyl]-3-(2-oxooazolidin-3-yl)benzamide 2,2,2-trifluoroacetic acid] | ≤ 10 | >100 | < 0.1 | 
4 | CN1CCN(c2ccc(C(=O)Nc3ccc([C@@H]4C[C@]4(N)CCc4ccccc4)cc3)cc2)CC1 (relative stereo) [Example A-116, N-[4-(trans-2-amino-2-phenethyl-cyclopropyl)phenyl]-4-(4-methylpiperazin-1-yl)benzamide dihydrochloride] | ≤ 10 | >100 | < 0.1 | 
5 | N[C@]1(Cc2ccc3ccccc3c2)C[C@H]1c1ccc(NC(=O)c2ccccc2)cc1 [Example A-44, N-[4-[tyrans-2-amino-2-(2-naphthylmethyl)cyclopropyl]phenyl] benzamide hydrochloride] | ≤ 10 |  | < 0.1 | 

The next lines start with results.

Row | IC50 [1] [µM] | IC50 (MAO-B)/IC50 (LSD1) (Human recombinant MAO B) | IC50 [3] [µM] | Compound | reduction of the spleen weight compared to mice treated with the vehicle [2]
6 | ≤ 10 | 16 |  | CC[C@@]1(N)C[C@H]1c1ccc(NC(=O)c2ccc(-c3ccccc3)cc2)cc1 (relative stereo) [Example A-36, N-[4-[(trans)-2-amino-2-ethyl-cyclopropyl]phenyl]-4-phenyl-benzamide hydrochloride] | around 50%
7 | ≤ 10 | >100 | < 0.1 | N[C@]1(CCc2ccccc2)C[C@H]1c1ccc(NC(=O)c2ccccc2)cc1 (relative stereo) [Example A-114, N-[4-trans-2-amino-2-phenethyl-cyclopropyl)phenyl] benzamide hydrochloride] | 
8 | 10 to 50 |  | < 0.1 | N[C@]1(c2ccccc2)C[C@H]1c1ccc(Br)cc1 (relative stereo) [Example D-5, trans-2-(4-bromophenyl)-1-phenyl-cyclopropanamine hydrochloride] | 
9 | 10 to 50 |  | 0.1 to 1 | N[C@]1(Cc2ccc3ccccc3c2)C[C@H]1c1ccc(OCc2ccccc2)cc1 (stereo in doubt) [Example A-67, 2-(4-benzyloxyphenyl)-1-(2-naphthylmethyl) cyclopropanamine hydrochloride] | 
